The target of this test is T1, soybean lipoxidase type V (Glycine max, UniProt P08170).
T1 sequence (P08170 1-839): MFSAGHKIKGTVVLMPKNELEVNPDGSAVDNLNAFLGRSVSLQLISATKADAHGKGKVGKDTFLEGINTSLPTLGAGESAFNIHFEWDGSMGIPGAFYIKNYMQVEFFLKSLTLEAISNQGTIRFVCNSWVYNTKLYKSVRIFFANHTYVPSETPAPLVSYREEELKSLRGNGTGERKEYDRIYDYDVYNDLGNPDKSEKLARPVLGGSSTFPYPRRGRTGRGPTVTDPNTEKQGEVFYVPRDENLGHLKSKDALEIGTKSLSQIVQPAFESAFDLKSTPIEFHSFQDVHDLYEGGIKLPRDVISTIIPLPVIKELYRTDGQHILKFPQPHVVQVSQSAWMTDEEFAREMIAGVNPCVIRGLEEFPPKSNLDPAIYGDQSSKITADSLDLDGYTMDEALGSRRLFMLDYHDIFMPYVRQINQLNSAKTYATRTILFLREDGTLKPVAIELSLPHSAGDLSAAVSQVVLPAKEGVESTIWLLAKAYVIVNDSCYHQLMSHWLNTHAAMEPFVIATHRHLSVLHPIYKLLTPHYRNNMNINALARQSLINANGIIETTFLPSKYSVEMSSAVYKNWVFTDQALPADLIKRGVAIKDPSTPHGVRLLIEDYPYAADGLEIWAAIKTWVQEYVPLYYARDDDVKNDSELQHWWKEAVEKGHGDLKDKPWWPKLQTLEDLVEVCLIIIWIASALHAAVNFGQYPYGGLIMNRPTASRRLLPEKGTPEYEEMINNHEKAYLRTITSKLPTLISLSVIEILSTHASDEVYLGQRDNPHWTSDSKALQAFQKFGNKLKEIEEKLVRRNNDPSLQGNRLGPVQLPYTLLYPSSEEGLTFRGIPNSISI
As to conditions: for A234 nm/min.: 25° C., 0.1M borate pH 9.

Where two headings read alike, the source gives them in different places.

As to `CC(Cc1ccc(O)c(O)c1)C(C)Cc1ccc(O)c(O)c1` (centres unmarked) [NDGA, nordihydroguaiaretic acid], the A234 nm/min. is 0.217 min⁻¹ (NDGA 1.3 × 10^-4 M), 0.186 min⁻¹ (NDGA 2.6 × 10^-4 M), 0.100 min⁻¹ (NDGA 3.2 × 10^-4 M) and 0.035 min⁻¹ (NDGA 3.9 × 10^-4 M). Also, the inhibition (usually the change of the read-out against control, counted positive when it falls) at 130 µM (pH 9) was determined as 1%. The same compound returned an inhibition at 260 µM (pH 9) of 14%. For the setting “pH 9”, this compound showed an inhibition at 320 µM of 54%.

In the case of `Oc1cccc2ccccc12` [alpha-Naphthol, alpha-naphthol], the A234 nm/min. entry (alpha-Naphthol 2.5 × 10^-5 M) is “.230 min⁻¹”. Moreover, where the note is “alpha-Naphthol 6.2 × 10^-5 M”, the A234 nm/min. entry is “.141 min⁻¹”. For the same compound, the A234 nm/min. entry (alpha-Naphthol 7.5 × 10^-5 M) is “.074 min⁻¹”. In addition, the A234 nm/min. entry (alpha-Naphthol 8.8 × 10^-5 M) was “.069 min⁻¹”. Where the note is “alpha-Naphthol 12.5 × 10^-5 M”, the A234 nm/min. entry was “.021 min⁻¹”. For the same compound, under “pH 9”, at 25 µM the inhibition was 12%, testing at 62 µM gave an inhibition of 46%, the inhibition at 75 µM came to 72% and the inhibition at 88 µM amounted to 74%. The compound also yielded an inhibition at 125 µM (pH 9) of 92%.
